Source: patent publication EP0596284A2, “Antimycotic cosmetic and dermatological compositions containing fatty acid esters” (Beiersdorf Aktiengesellschaft, priority 1992, dated 1994)
Like-named read-outs stand apart in the source and are kept apart here.

Tested on: Pityrosporum ovale
Test: Agar diffusion test, inhibition zones around wells on selective agar plates
Format: cell-based
Conditions: for zone of inhibition at 0.5 % / zone of inhibition at 1 % / zone of inhibition at 5 % / zone of inhibition at 10 %: Malassezia furfur, 72 h, read-out: mittlerer Hemmhof-Durchmesser
Experimental: Testlösungen: • TY-Medium 10 g Trypton + 5 g Hefeextrakt + 10 g NaCI, aufgelöst in 1000 ml H20, gepuffert auf pH 7,4 , autoklaviert. • Testverbindung 1: Hexyllaurat • Testverbindung 2: Isopropylstearat • Testverbindung 3: Caprylsäure-/Caprinsäure-Triglycerid • Testverbindung 4: Glyceryllaurat
Pityrosporum ovale von drei Patienten mit Pityrosporum-Follikulitis, Pityriasis versicolor oder seborrhoischem Ekzem wurde in einer Mischung aus 50 % TY-Medium, 30 % Olivenöl und 20 % Tween 80 suspendiert. Die drei verschiedenen Hefestämme wurden in drei parallelen Ansätzen auf einer Selektivagarplatte für pathogene Pilze (Merck AG, Darmstadt) gleichmäßig ausgespatelt. Mit Hilfe steriler Korkbohrer wurden in jede Platte mehrere kreisrunde Vertiefungen gestanzt, in die Vertiefungen mit einem Durchmesser von 5 mm wurden jeweils 25 ul der Testlösungen gegeben. Die Testlösungen stellten 0,5 %-ige, 1,0 %- ige, 2,5 %-ige, 5,0 %-ige und 10,0 %-ige Lösungen der Testsubstanzen in Ethanol dar.
Nach dreistündiger Inkubation bei 37 C wurde das verdunstete Lösungsmittel durch je 25 ul Jojobaöl ersetzt und die Platten anschließend unter Beibehaltung der Wachstumsbedingungen drei Tage inkubiert. Während dieser Zeit diffundierten die Testsubstanzen in den die Vertiefungen umgebenden Nährboden.
Antimycotisch wirksame Testverbindungen zeigten nach dreitägiger Inkubation einen deutlichen konzentrischen Hemmhof um die Vertiefungen. Die Größe dieser Hemmhöfe, wiedergegeben in Tabelle 1, ist bei vergleichbarer Substanzkonzentration ein Maß für die antimycotische Wirksamkeit der Testverbindungen.

[1] = Konz. 0,5 % in Ethanol, 25 ul per 5 mm well, three patient strains, three days at 37 C
[2] = Konz. 1,0 % in Ethanol, 25 ul per 5 mm well, three patient strains, three days at 37 C
[3] = Konz. 5,0 % in Ethanol, 25 ul per 5 mm well, three patient strains, three days at 37 C
[4] = Konz. 10,0 % in Ethanol, 25 ul per 5 mm well, three patient strains, three days at 37 C

| Molecule | zone of inhibition at 0.5 % [1] | zone of inhibition at 1 % [2] | zone of inhibition at 5 % [3] | zone of inhibition at 10 % [4] | other results |
| --- | --- | --- | --- | --- | --- |
| CCCCCCCCCCCC(=O)OCCCCCC [Testlösung 1, Hexyllaurat] | 14 mm | 15.5 mm | 18 mm | 20.7 mm | – |
| CCCCCCCCCCCC(=O)OCC(O)CO (stereo not shown) [Testlösung 4, Glyceryllaurat] | – | – | – | – | zone of inhibition at 0.5 %: 11 mm; zone of inhibition at 1 %: 14 mm; zone of inhibition at 5 %: 16.5 mm; zone of inhibition at 10 %: 16.5 mm |
| CCCCCCCCCCCCCCCCCC(=O)OC(C)C [Testlösung 2, Isopropylstearat] | 10.7 mm | 14 mm | 18.7 mm | 20.7 mm | – |
| Caprylsäure-/Caprinsäure-Triglycerid [Testlösung 3] | – | – | – | – | mittlerer Hemmhof-Durchmesser [1]: 9,0 mm; mittlerer Hemmhof-Durchmesser [2]: 9,0 mm; mittlerer Hemmhof-Durchmesser [3]: 15,0 mm; mittlerer Hemmhof-Durchmesser [4]: 17,3 mm |
